{
  "source": "ChEMBL document CHEMBL4373743",
  "about": "“Selective apoptosis-inducing activity of synthetic hydrocarbon-stapled SOS1 helix with d-amino acids in H358 cancer cells expressing KRASG12C” (Eur J Med Chem, 2020)",
  "key": {"[1]": {"system": "GTPase KRas (Homo sapiens), P01116 [G12C]", "sequence (P01116 whole entry G12C)": "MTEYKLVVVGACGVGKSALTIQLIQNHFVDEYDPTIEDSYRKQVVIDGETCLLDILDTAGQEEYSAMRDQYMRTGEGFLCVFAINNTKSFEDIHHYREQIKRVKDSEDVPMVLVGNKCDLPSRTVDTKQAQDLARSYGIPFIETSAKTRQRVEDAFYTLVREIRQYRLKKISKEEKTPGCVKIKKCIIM", "assay": "Binding affinity to biotinylated N-terminal His6-tagged recombinant KRAS G12C mutant (unknown origin) assessed as dissociation constant by BLI method"}, "A549 [2]": {"system": "A549", "assay": "Antiproliferative activity against human A549 cells harboring KRAS G12S mutant at 0.37 to 10 uM incubated for 24 hrs by MTT assay", "format": "functional, cell-based"}, "NCI-H358 [3]": {"system": "NCI-H358", "assay": "Induction of cell cycle arrest in human NCI-H358 cells harboring KRAS G12C mutant assessed as accumulation at G2/M phase at 10 to 40 uM incubated for 24 hrs by PI staining based flow cytometric analysis (reference value: 11.08%)", "format": "functional"}, "A549 [4]": {"system": "A549", "assay": "Induction of cell cycle arrest in human A549 cells harboring KRAS G12S mutant assessed as reduction in CDK1 protein expression at 40 uM incubated for 24 hrs by Western blot analysis", "format": "functional, cell-based"}, "NCI-H358 [5]": {"system": "NCI-H358", "assay": "Induction of apoptosis in human NCI-H358 cells harboring KRAS G12C mutant assessed as early apoptotic cells at 2.5 uM incubated for 24 hrs by Annexin V-FITC/PI staining based flow cytometric analysis (reference value: 4.34%)", "format": "functional"}, "NCI-H358 [6]": {"system": "NCI-H358", "assay": "Induction of apoptosis in human NCI-H358 cells harboring KRAS G12C mutant assessed as late apoptotic cells at 2.5 uM incubated for 24 hrs by Annexin V-FITC/PI staining based flow cytometric analysis (reference value: 28.2%)", "format": "functional"}, "NCI-H358 [7]": {"system": "NCI-H358", "assay": "Induction of apoptosis in human NCI-H358 cells harboring KRAS G12C mutant assessed as viable cells at 10 uM incubated for 24 hrs by Annexin V-FITC/PI staining based flow cytometric analysis (reference value: 67.2%)", "format": "functional", "conditions": "NCI-H358, 24 h, read-out: Activity"}, "A549 [8]": {"system": "A549", "assay": "Induction of apoptosis in human A549 cells harboring KRAS G12S mutant assessed as necrotic cells at 2.5 uM incubated for 24 hrs by Annexin V-FITC/PI staining based flow cytometric analysis (reference value: 0.16%)", "format": "functional"}, "A549 [9]": {"system": "A549", "assay": "Induction of apoptosis in human A549 cells harboring KRAS G12S mutant assessed as viable cells at 10 uM incubated for 24 hrs by Annexin V-FITC/PI staining based flow cytometric analysis (reference value: 68.3%)", "format": "functional", "conditions": "A549, 24 h, read-out: Activity"}, "A549 [10]": {"system": "A549", "assay": "Induction of apoptosis in human A549 cells harboring KRAS G12S mutant assessed as early apoptotic cells at 10 uM incubated for 24 hrs by Annexin V-FITC/PI staining based flow cytometric analysis (reference value: 6.09%)", "format": "functional"}, "A549 [11]": {"system": "A549", "assay": "Induction of apoptosis in human A549 cells harboring KRAS G12S mutant assessed as early apoptotic cells at 20 uM incubated for 24 hrs by Annexin V-FITC/PI staining based flow cytometric analysis (reference value: 6.09%)", "format": "functional"}, "A549 [12]": {"system": "A549", "assay": "Induction of apoptosis in human A549 cells harboring KRAS G12S mutant assessed as necrotic cells at 20 uM incubated for 24 hrs by Annexin V-FITC/PI staining based flow cytometric analysis (reference value: 0.16%)", "format": "functional"}, "NCI-H358 [13]": {"system": "NCI-H358", "assay": "Induction of apoptosis in human NCI-H358 cells harboring KRAS G12C mutant assessed as increase in caspase3 protein level at 40 uM incubated for 24 hrs by Western blot analysis", "format": "functional, cell-based"}},
  "note": "Calls of active or inactive are those of the source. The calls are words filed in the database; no cut-off is given here. Bridge positions count the residues as written; N and C are the ends. Square brackets hold non-standard residues; d marks the D form. Peptide text beside a SMILES is read from it. S5 = C=CCCC[C@](C)(N)C(=O)O",
  "data": [
    {"smiles": "CC[C@H](C)[C@H](NC(=O)CNC(=O)[C@H](Cc1ccccc1)NC(=O)[C@H](Cc1ccccc1)NC(=O)[C@H](CCCNC(=N)N)NC(=O)[C@H](CCCNC(=N)N)NC(C)=O)C(=O)N[C@@]1(C)CCC/C=C\\CCC[C@@](C)(C(=O)N[C@@H](CC(C)C)C(=O)N[C@@H](CCCCN)C(=O)N[C@H](C(=O)N[C@@H](CCC(=O)O)C(=O)N[C@@H](CCC(=O)O)C(=O)NCC(=O)N[C@@H](CC(N)=O)C(=O)O)[C@@H](C)O)NC(=O)[C@H](CC(N)=O)NC(=O)[C@H](CC(=O)O)NC(=O)[C@H]([C@@H](C)O)NC(=O)[C@H](CC(C)C)NC(=O)[C@H](CC(=O)O)NC1=O", "note": "(Ac-RRFFGI[S5]DLTDN[S5]LKTEEGN-OH; staple (Z) 7-13)", "values": [
      {"measurement": "Kdiss", "setting": "[1]", "value": 6.37, "unit": "×10⁻³ /s"},
      {"measurement": "Activity", "setting": "A549 [2]", "value": "inactive"},
      {"measurement": "Activity", "setting": "NCI-H358 [3]", "value": 34.4, "unit": "%"},
      {"measurement": "Activity", "setting": "A549 [4]", "value": "inactive"},
      {"measurement": "Activity", "setting": "NCI-H358 [5]", "value": 4.22, "unit": "%"},
      {"measurement": "Activity", "setting": "NCI-H358 [6]", "value": 33, "unit": "%"},
      {"measurement": "viability at 10 µM", "setting": "NCI-H358 [7]", "value": 52.5, "unit": "%"},
      {"measurement": "Activity", "setting": "A549 [8]", "value": 0.4, "unit": "%"},
      {"measurement": "viability at 10 µM", "setting": "A549 [9]", "value": 67.6, "unit": "%"},
      {"measurement": "Activity", "setting": "A549 [10]", "value": 1.79, "unit": "%"},
      {"measurement": "Activity", "setting": "A549 [11]", "value": 1.68, "unit": "%"},
      {"measurement": "Activity", "setting": "A549 [12]", "value": 0.33, "unit": "%"},
      {"measurement": "Activity", "setting": "NCI-H358 [13]", "value": "Active"}
    ]}
  ]
}
